The results in this text go back to US4012387A, “Benzo-[g]pyrido[2,1-b]quinazolinones” (Warner-Lambert Company, priority 1975, dated 1977).

One may read the ED50 as the midpoint of the dose-response relation.

The assay concerns rat passive cutaneous anaphylaxis. The assay is described as follows: rat passive cutaneous anaphylaxis test (PCA), procedure of Herzig. The assay is classed as in vivo. From the text: Mansmann, Eds., John Wiley and Son, N.Y., 1975].
Effective dose 50% inhibition rat passive cutaneous anaphylaxis

The mark [1] stands for this setting: effective dose 50% inhibition, rat PCA, intravenous, read-out: ED50 -PCA (rat) iv.

Like-named read-outs stand apart in the source and are kept apart here.

`O=C(O)c1cc(=O)c2c(OCC(O)COc3cccc4oc(C(=O)O)cc(=O)c34)cccc2o1` [Intal, Cromoglycate, reference compound]: the “ED50 -PCA (rat) ip.” value (effective dose 50% inhibition, rat PCA, intraperitoneal) was “inactive”. The ED50 under setting [1] lay in the range of 1 to 2 mg/kg. In addition, the “ED50 -PCA (rat) po.” value (effective dose 50% inhibition, rat PCA, oral) was “inactive”.
For `O=C(O)c1ccc2nc3cc4ccccc4cc3c(=O)n2c1` [Example 1, 6-oxo-6H-benzo[g]pyrido[2,1-b]quinazoline-3-carboxylic acid], the ED50 is 0.015 mg/kg under setting [1]; less than 0.1 mg/kg (effective dose 50% inhibition, rat PCA, oral, read-out: ED50 -PCA (rat) po.); 0.015 mg/kg (ip, effective dose 50% inhibition, rat PCA, intraperitoneal, read-out: ED50 -PCA (rat) ip.). The “effectiveness compared with the commercial compound (Intal), i.v. administration” value (i.v., rat PCA, comparison in words) was “many times as effective”. Besides, for the setting “intraperitoneal, result in words”, the “activity in rat PCA when given intraperitonially” value was “active”. Also, the “activity in rat PCA when given orally” value (oral, result in words) is reported as “active”.
